Experimental findings from patent US20230014445A1, “ALLOSTERIC CHROMENONE INHIBITORS OF PHOSPHOINOSITIDE 3-KINASE (PI3K) FOR THE TREATMENT OF DISEASE” (Petra Pharma Corporation, priority 2021, published 2023) are described below.

Test [1] addresses T1, human full length PIK3KA H1047R mutant (p110α/p85α complex) (Homo sapiens, UniProt P42336, H1047R).
T1 construct: Recombinant, catalytically active human full length PIK3KA Wild-type and H1047R mutant were purchased; 6xHis (N); purchased EMD Millipore Sigma 14-792M
Description: PI3K-Alpha Kinase (PIK3CA) biochemical activity, H1047R mutant (ADP-Glo). To be noted: 20 uM ATP. In a few lines: (§1)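 ADP formation, measured by ADP-Glo luminescence after reaction to about 10% ATP conversion at 27° C., gives 10-point 4-parameter IC50 curves normalized to no-enzyme and DMSO controls. Lipid substrate was PIP2diC8 or Soy PI at 50 uM, with 20 uM ATP. WT or H1047R p110α/p85α complex (1-5 nM) was preincubated 1 h with compound.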
(In ADP-Glo the light output rises with the ADP produced.)

For test [2], the target named is T2, human full length PIK3KA Wild-type (p110α/p85α complex) (Homo sapiens, UniProt P42336).
T2 construct: Recombinant, catalytically active human full length PIK3KA Wild-type and H1047R mutant were purchased; 6xHis (N); purchased EMD Millipore Sigma 14-602M
Description: PI3K-Alpha Kinase (PIK3CA) biochemical activity, wild-type (ADP-Glo). To be noted: 20 uM ATP. In a few lines:
as §1

Test [3] concerns the target PI3K-α (PIK3CA) in MDA-MB-453 cells (Homo sapiens, UniProt P42336). Nature of the test: PI3K-Alpha Kinase (PIK3CA) activity in vitro cell based assay (AlphaLisa SureFire). The protocol: PI3K-Alpha Kinase (PIK3CA) Activity In Vitro Cell Based Assay and Determining IC50 Values for Inhibitors
The MDA-MB-453 (ATCC-HTB-131) cell line was obtained from the American Type Culture Collection (Manassas, Va.). Cells were maintained in Dulbecco's Modified Eagle Media (DMVEM, Gibco 11965-092) supplemented with 10% Fetal Bovine Serum, heat inactivated (FBS HI, Gibco 10082-147), 1× non-essential amino acids (NEAA, Gibco 11140-050), and 1 mM sodium pyruvate (Gibco 11360-070). Cultures were maintained in a humidified incubator at 37° C. under […].
For compound testing in 0% FBS, MDA-MB-453 cells were seeded at a density of 1.5×10^4 cells per well in white 384-well plates in 20 μl of Minimum Essential Media (MEM) assay media with 1×NEAA, 1 mM sodium pyruvate, and 1 μg/mL human insulin (Sigma I9278). Compounds dissolved in 10 mM stock solutions in DMSO were serially diluted 1:3 in DMSO to generate a 10-point dilution series and plated using an acoustic liquid handler system (Echo 550 Series Liquid Handler, Labcyte). A 5× intermediate compound dilution plate in MEM with 1×NEAA and 1 mM sodium pyruvate (150 μM starting compound concentration in 1.5% DMSO) was then prepared. Five μl of the intermediate serially diluted compounds were added to the cell plate to final concentrations ranging from […] in 0.3% DMSO. 0.3% DMSO alone was used to establish the maximum (MAX) signal and GDC-0032 at a final concentration of 1 μM was used as a reference compound for the minimum (MIN) signal. After 3 hours treatment, the medium was removed, and the cells lysed in 10 μL of 1× SureFire Lysis buffer with shaking for 10 minutes at room temperature. The Acceptor Mix (Reaction Buffer 1+Reaction Buffer 2+Activation Buffer+SureFire Ultra Acceptor Beads) was prepared by diluting Activation buffer 25-fold in combined Reaction Buffer 1 and Reaction Buffer 2. The Acceptor beads were diluted 50-fold in the combined Reaction Buffers. Five μL of Acceptor Mix was added to each well, the plate was sealed and covered with foil and incubated for 1 hour at room temperature. The Donor Mix (dilution buffer+SureFire Ultra Donor Beads) was prepared by diluting Donor Beads 50-fold in dilution buffer. Five μL of the Donor Mix was added to each well and the plate sealed and covered with foil and incubated for 1 hour at room temperature in the dark. The plates were read on a Neo2 plate reader instrument from Biotek using standard AlphaLisa settings.
Compounds were tested in duplicate and the average % inhibition at each compound concentration was used to generate a single dose response curve. The data were processed using the Genedata-Screener tool. Relative IC50 values were determined using luminescence units by calculating percent inhibition with respect to the in-plate “MIN” (GDC-0032 reference control) and “MAX” (DMSO) controls. The data was analyzed using a 4-parameter nonlinear logistic equation (four-parameter logistic concentration-response curve):
Y=bottom+[(top−bottom)/1+(X/IC50)slope]
where Y=% inhibition, X=concentration of inhibitor, bottom=minimum value of y attained by curve-fit, top=maximum value of y attained by curve-fit and slope=steepness of curve at the IC50.
% Inhibition=[(signal at X−median Min)/(median Max−median Min)]×100
IC50: concentration of compound that reduces a given response (ligand binding, enzyme response) by 50%. Relative IC50: concentration giving half the compound's maximum response.
For IC50 values shown in Table B, “A” means IC50<50 nM; “B” means IC50 ranging between 50 nM and 100 nM; “C” means IC50 ranging between 100 nM and 500 nM; “D” means IC50>500 nM.

[4] abbreviates: 0% FBS, 3 hours treatment, read-out: PI3K-α (PIK3CA) in vitro cell based assay IC50.
Where [5] appears, read: read-out: PI3K-α (PIK3CA) in vitro cell based assay IC50, 0% FBS, 3 hours treatment.

pIC50: −log10 of the molar value. Where two headings read alike, the source gives them in different places.

T1 sequence (P42336 whole entry H1047R): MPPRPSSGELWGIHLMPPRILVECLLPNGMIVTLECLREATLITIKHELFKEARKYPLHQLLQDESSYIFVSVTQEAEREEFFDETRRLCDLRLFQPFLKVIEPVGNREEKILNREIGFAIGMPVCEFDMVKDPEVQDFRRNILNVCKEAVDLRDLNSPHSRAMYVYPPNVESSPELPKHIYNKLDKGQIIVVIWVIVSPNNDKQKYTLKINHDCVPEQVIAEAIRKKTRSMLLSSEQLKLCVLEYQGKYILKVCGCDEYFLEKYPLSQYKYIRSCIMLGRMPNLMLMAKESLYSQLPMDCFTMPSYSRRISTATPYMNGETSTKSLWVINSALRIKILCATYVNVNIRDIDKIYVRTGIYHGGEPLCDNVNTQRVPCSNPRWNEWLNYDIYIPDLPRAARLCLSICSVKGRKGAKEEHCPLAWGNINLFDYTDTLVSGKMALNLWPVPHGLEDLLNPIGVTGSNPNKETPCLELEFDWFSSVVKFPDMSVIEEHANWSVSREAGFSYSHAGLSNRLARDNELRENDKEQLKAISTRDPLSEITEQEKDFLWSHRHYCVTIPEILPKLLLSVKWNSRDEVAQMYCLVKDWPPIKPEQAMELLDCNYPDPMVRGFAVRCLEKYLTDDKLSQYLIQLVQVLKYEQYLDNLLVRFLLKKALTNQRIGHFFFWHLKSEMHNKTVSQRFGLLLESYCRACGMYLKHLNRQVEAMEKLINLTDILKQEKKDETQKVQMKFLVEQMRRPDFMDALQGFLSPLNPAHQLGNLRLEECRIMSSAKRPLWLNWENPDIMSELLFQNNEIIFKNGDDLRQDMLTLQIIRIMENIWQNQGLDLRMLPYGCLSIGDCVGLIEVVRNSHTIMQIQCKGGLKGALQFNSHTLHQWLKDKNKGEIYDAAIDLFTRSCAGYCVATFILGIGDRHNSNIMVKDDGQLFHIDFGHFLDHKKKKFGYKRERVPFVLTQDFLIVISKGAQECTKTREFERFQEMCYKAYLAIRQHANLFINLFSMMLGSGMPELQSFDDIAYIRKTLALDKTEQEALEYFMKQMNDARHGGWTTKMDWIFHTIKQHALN
T1 sequence (P27986 whole entry partner): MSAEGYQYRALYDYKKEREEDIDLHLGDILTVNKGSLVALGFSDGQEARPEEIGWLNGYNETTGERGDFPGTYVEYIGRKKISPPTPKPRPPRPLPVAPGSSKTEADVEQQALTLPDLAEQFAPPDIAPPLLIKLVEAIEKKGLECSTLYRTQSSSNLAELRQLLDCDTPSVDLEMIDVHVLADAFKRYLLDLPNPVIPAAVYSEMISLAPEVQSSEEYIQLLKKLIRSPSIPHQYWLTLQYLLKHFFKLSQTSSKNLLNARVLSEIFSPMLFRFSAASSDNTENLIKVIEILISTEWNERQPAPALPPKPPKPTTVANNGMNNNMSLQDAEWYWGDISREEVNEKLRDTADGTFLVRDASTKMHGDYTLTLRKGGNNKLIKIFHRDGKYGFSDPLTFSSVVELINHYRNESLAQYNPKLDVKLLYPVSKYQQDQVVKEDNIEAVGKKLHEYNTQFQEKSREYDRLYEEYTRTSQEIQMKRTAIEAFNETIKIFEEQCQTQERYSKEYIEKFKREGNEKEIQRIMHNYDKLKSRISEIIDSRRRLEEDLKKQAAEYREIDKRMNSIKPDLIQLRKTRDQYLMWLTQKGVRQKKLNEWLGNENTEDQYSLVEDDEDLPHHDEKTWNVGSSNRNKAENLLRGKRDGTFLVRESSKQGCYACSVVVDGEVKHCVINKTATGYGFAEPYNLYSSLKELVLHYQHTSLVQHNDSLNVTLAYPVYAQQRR
PI3K-α (PIK3CA) in MDA-MB-453 cells, sequence (P42336 whole entry): as the sequence (P42336 whole entry H1047R) above, with R1047H counted along it
PI3K-α (PIK3CA) in MDA-MB-453 cells, sequence (P27986 2-724, further chain): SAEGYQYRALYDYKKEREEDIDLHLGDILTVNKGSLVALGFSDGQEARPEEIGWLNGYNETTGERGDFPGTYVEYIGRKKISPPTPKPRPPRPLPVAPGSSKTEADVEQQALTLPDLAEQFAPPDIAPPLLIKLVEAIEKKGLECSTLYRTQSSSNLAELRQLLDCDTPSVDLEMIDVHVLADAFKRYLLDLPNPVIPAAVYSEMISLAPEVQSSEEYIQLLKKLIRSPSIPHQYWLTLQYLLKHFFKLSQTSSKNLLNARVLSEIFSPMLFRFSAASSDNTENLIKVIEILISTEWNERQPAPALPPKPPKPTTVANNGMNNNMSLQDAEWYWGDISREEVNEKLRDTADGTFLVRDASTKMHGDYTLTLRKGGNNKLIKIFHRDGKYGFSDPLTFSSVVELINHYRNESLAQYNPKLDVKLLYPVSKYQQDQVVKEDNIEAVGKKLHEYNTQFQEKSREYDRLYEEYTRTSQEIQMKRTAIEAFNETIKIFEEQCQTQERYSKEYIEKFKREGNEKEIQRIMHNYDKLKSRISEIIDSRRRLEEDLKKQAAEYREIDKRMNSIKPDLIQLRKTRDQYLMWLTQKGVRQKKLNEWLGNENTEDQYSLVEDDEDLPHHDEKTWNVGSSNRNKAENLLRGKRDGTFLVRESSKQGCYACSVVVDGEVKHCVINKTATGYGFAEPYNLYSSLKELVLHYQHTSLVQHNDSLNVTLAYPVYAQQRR

`Cc1cc(C(C)Nc2ccccc2C(=O)O)c2oc(-c3ccc(F)nc3)cc(=O)c2c1` (single isomer, unassigned; isomer 2) [Example 36, 2-[1-[2-(6-Fluoro-3-pyridyl)-6-methyl-4-oxo-chromen-8-yl]ethylamino]benzoic acid, Isomer 2]: the results for the pIC50 in test [1] (Soy PI lipid substrate), in test [2] (Soy PI lipid substrate) and in test [3] (setting [4]) were above 6.30, 5.00 to 5.30 and above 7.30, respectively.

With `Cc1cc(C(C)Nc2ccccc2C(=O)O)c2oc(-c3cnc(-c4ccccc4)s3)c(C)c(=O)c2c1` (single isomer, unassigned) [Example 126, 2-[1-[3,6-Dimethyl-4-oxo-2-(2-phenylthiazol-5-yl)chromen-8-yl]ethylamino]benzoic acid, Isomer 1,2,2,2-trifluoroacetic acid], the pIC50 in test [1] (Soy PI lipid substrate) was above 6.30; in test [2] (Soy PI lipid substrate), above 6.30; in test [3] (setting [5]), 7.00 to 7.30.

For `Cc1cc(C(C)Nc2ccc(Cl)cc2C(=O)O)c2oc(-c3cccnc3)c(C)c(=O)c2c1` (single isomer, unassigned; isomer 1) [Example 132, 5-Chloro-2-[1-[3,6-dimethyl-4-oxo-2-(3-pyridyl)chromen-8-yl]ethylamino]benzoic acid, Isomer 1], the negative-log IC50 (pIC50) in test [1] (Soy PI lipid substrate) is above 6.30; in test [2] (Soy PI lipid substrate), 6.00 to 6.30; in test [3] (setting [4]) it was above 7.30.

For `COc1ncc(-c2cc(=O)c3cc(C)cc(C(C)Nc4ccccc4C(=O)O)c3o2)cn1` (single isomer, unassigned) [Example 5, 2-[1-[2-(2-Methoxypyrimidin-5-yl)-6-methyl-4-oxo-chromen-8-yl]ethylamino]benzoic acid], the negative-log IC50 (pIC50) in test [1] (PIP2diC8 lipid substrate) was below 5.00; in test [2] (PIP2diC8 lipid substrate) it was below 5.00; in test [3] (setting [4]) it was below 6.30.

For `Cc1cc(C(C)Nc2ccccc2C(=O)O)c2oc(-c3ccc(C4(C#N)CC4)nc3)c(C)c(=O)c2c1` (single isomer, unassigned) [Example 89, 2-[1-[2-[6-(1-Cyanocyclopropyl)-3-pyridyl]-3,6-dimethyl-4-oxo-chromen-8-yl]ethylamino]benzoic acid, Isomer 1,2,2,2-trifluoroacetic acid], the results for the pIC50 in test [1] (Soy PI lipid substrate), in test [2] (Soy PI lipid substrate) and in test [3] (setting [5]) were above 6.30, 5.30 to 6.00 and above 7.30, respectively.

Consider `Cc1cc(C(C)Nc2ccccc2C(=O)O)c2oc(-c3cncc(C#N)c3)c(C)c(=O)c2c1` (single isomer, unassigned) [Example 125, 2-[1-[2-(5-Cyano-3-pyridyl)-3,6-dimethyl-4-oxo-chromen-8-yl]ethylamino]benzoic acid, Isomer 1,2,2,2-trifluoroacetic acid], for which the results for the pIC50 in test [1] (Soy PI lipid substrate), in test [2] (Soy PI lipid substrate) and in test [3] (setting [5]) were above 6.30, 6.00 to 6.30 and above 7.30, respectively.

As for `Cc1cc(C(C)Nc2ccccc2C(=O)O)c2oc(-c3cnc(OC(C)C)nc3)cc(=O)c2c1` (single isomer, unassigned; isomer 2) [Example 42, 2-[1-[2-(2-Isopropoxypyrimidin-5-yl)-6-methyl-4-oxo-chromen-8-yl]ethylamino]benzoic acid, Isomer 2], the pIC50 was above 6.30 in test [1] (Soy PI lipid substrate), 5.00 to 5.30 in test [2] (Soy PI lipid substrate) and 7.00 to 7.30 in test [3] (setting [4]).

With `COc1ccc(-c2oc3c(C(C)Nc4ccccc4C(=O)O)cc(C)cc3c(=O)c2C)cn1` (single isomer, unassigned) [Example 65, 2-[1-[2-(6-Methoxy-3-pyridyl)-3,6-dimethyl-4-oxo-chromen-8-yl]ethylamino]benzoic acid, Isomer 1,2,2,2-trifluoroacetic acid], the pIC50 is above 6.30 in test [1] (Soy PI lipid substrate), 5.30 to 6.00 in test [2] (Soy PI lipid substrate) and above 7.30 in test [3] (setting [5]).

As for `CC(Nc1ccccc1C(=O)O)c1cc(C(F)(F)F)cc2c(=O)cc(-c3ccccn3)oc12` (single isomer, unassigned; isomer 1) [Example 76, 2-[1-[4-Oxo-2-(2-pyridyl)-6-(trifluoromethyl)chromen-8-yl]ethylamino]benzoic acid, Isomer 1], the pIC50 was above 6.30 in test [1] (Soy PI lipid substrate), 5.00 to 5.30 in test [2] (Soy PI lipid substrate) and 7.00 to 7.30 in test [3] (setting [4]).

Regarding `Cc1cc(C(C)Nc2ccccc2C(=O)O)c2oc(-c3cccnc3)c(C)c(=O)c2c1` (single isomer, unassigned; isomer 1) [Example 25, 2-[1-[3,6-Dimethyl-4-oxo-2-(3-pyridyl)chromen-8-yl]ethylamino]benzoic acid, Isomer 1], the pIC50 is above 6.30 in test [1] (Soy PI lipid substrate), 6.00 to 6.30 in test [2] (Soy PI lipid substrate) and above 7.30 in test [3] (setting [4]).

For the molecule `Cc1cc(C(C)Nc2ccccc2C(=O)O)c2oc(-c3cnn(-c4ccc(C#N)c(F)c4)c3)cc(=O)c2c1` (single isomer, unassigned) [Example 85, 2-[1-[2-[1-(4-Cyano-3-fluoro-phenyl)pyrazol-4-yl]-6-methyl-4-oxo-chromen-8-yl]ethylamino]benzoic acid, Isomer 2,2,2,2-trifluoroacetic acid], the pIC50 is above 6.30 in test [1] (Soy PI lipid substrate), 5.30 to 6.00 in test [2] (Soy PI lipid substrate) and 6.30 to 7.00 in test [3] (setting [5]).

In the case of `Cc1cc(C(C)Nc2cccnc2C(=O)O)c2oc(-c3cccnc3)c(C)c(=O)c2c1` (single isomer, unassigned; isomer 1) [Example 116, 3-[1-[3,6-Dimethyl-4-oxo-2-(3-pyridyl)chromen-8-yl]ethylamino]pyridine-2-carboxylic acid, Isomer 1], the pIC50 in test [1] (Soy PI lipid substrate) was above 6.30; in test [2] (Soy PI lipid substrate) it was 5.00 to 5.30; in test [3] (setting [4]), 7.00 to 7.30.

`Cc1cc(C(C)Nc2ccccc2C(=O)O)c2oc(-c3ccc(C(F)(F)F)nc3)cc(=O)c2c1` (single isomer, unassigned; isomer 1) [Example 37, 2-[1-[6-Methyl-4-oxo-2-[6-(trifluoromethyl)-3-pyridyl]chromen-8-yl]ethylamino]benzoic acid, Isomer 1]: the pIC50 in test [1] (Soy PI lipid substrate) was below 5.00; in test [2] (Soy PI lipid substrate) it was below 5.00; in test [3] (setting [4]), below 6.30.

As to `Cc1cc(C(C)Nc2ccccc2C(=O)O)c2oc(-c3cncc(-n4cccn4)c3)c(C)c(=O)c2c1` (single isomer, unassigned) [Example 127, 2-[1-[3,6-Dimethyl-4-oxo-2-(5-pyrazol-1-yl-3-pyridyl)chromen-8-yl]ethylamino]benzoic acid, Isomer 1,2,2,2-trifluoroacetic acid], the figures for the pIC50 in test [1] (Soy PI lipid substrate), in test [2] (Soy PI lipid substrate) and in test [3] (setting [5]) were above 6.30, 5.30 to 6.00 and above 7.30, respectively.

Regarding `Cc1cc(C(C)Nc2cccc(F)c2C(=O)O)c2oc(-c3cnn(-c4ccc(C#N)cc4)c3)cc(=O)c2c1` (single isomer, unassigned; isomer 1) [Example 112, 2-[1-[2-[1-(4-Cyanophenyl)pyrazol-4-yl]-6-methyl-4-oxo-chromen-8-yl]ethylamino]-6-fluoro-benzoic acid, Isomer 1], the figures for the pIC50 in test [1] (Soy PI lipid substrate), in test [2] (Soy PI lipid substrate) and in test [3] (setting [4]) were 5.00 to 5.30, below 5.00 and below 6.30, respectively.

What is called pIC50 is the IC50 on a negative log10 scale, so that one unit is a factor of ten.
